Test results taken from patent US20050209278A1, “Piperidinyl- and piperazinyl-sulfonylmethyl hydroxamic acids and their use as protease inhibitors” (priority 2002, published 2005).
Read-outs that look alike come from different tables or passages of the source.

Experiments:
MMP-14 = target: T1, MMP-14 (Homo sapiens, UniProt P50281); test: In vitro MMP inhibition, IC50 determination (fluorogenic substrate I); format: biochemical; conditions: read-out: MMP-14 (IC-50)
T1 construct: The catalytic domain enzyme was expressed in E. coli inclusion bodies, solubilized in urea; made in house

MMP-13 = target: T2, MMP-13 (Homo sapiens, UniProt P45452); test: as above; format: biochemical; conditions: read-out: MMP-13 (IC-50)
T2 construct: made in house; host or cells: baculovirus / insect cells

Row | IC50 (MMP-14; value in parenthesis) [nM] | IC50 (MMP-13; value in parenthesis) [nM] | IC50 (MMP-14; value in parentheses) [nM] | IC50 (MMP-13; value in parentheses) [nM] | Compound
1 | 3620 | 0.53 | – | – | CCOCCCc1ccc(N2CCN(S(=O)(=O)C3(C(=O)NO)CCN(CCOC)CC3)CC2)cc1 [Example 179]
2 | > 10000 | 1.63 | – | – | CCCOc1ccc(N2CCN(S(=O)(=O)C3(C(=O)NO)CCN(CCOC)CC3)CC2)cc1F [Example 185]
3 | 2040 | 2.76 | – | – | COCCN1CCC(C(=O)NO)(S(=O)(=O)N2CCN(c3ccc(CC4CCC4)cc3)CC2)CC1 [Example 183]
4 | 2400 | 2.26 | – | – | CCOc1ccc(N2CCN(S(=O)(=O)C3(C(=O)NO)CCN(CCOC)CC3)CC2)cc1F [Example 184]
5 | 5560 | 1.21 | – | – | COCCCc1ccc(N2CCN(S(=O)(=O)C3(C(=O)NO)CCN(CCOC)CC3)CC2)cc1 [Example 180]
6 | – | – | 3800 | 0.35 | CCCCOc1ccc(N2CCN(S(=O)(=O)C3(C(=O)NO)CCN(C(=O)CCC)CC3)CC2)cc1 [Example 290]
7 | > 10000 | 47.3 | – | – | CCc1cnc(N2CCN(S(=O)(=O)C3(C(=O)NO)CCN(CCOC)CC3)CC2)nc1 [Example 187]
8 | > 10000 | 18 | – | – | COCCN1CCC(C(=O)NO)(S(=O)(=O)N2CCN(c3ccc(CC4CCCCC4)cc3)CC2)CC1 [Example 181]
9 | 7850 | 0.14 | – | – | COCCN1CCC(C(=O)NO)(S(=O)(=O)N2CCN(c3ccc(CCC4CCCC4)cc3)CC2)CC1 [Example 182]
10 | > 10000 | 4.01 | – | – | CCC(CC)Cc1ccc(N2CCN(S(=O)(=O)C3(C(=O)NO)CCN(CCOC)CC3)CC2)cc1 [Example 188]
11 | 7480 | 2.63 | – | – | COCCN1CCC(C(=O)NO)(S(=O)(=O)N2CCN(c3ccc(C#N)cc3)CC2)CC1 [Example 186]
